Numbers after ± are expanded uncertainties.

For series [1] the following is noted: Crystal; DTA.
A short description of series [2]: Molar enthalpy of transition or fusion. The settings on record: Crystal; DSC.

For `CCn1cc[n+](C)c1.F[P-](F)(F)(F)(F)F` [1-ethyl-3-methylimidazolium hexafluorophosphate], in series [1], the Normal melting temperature worked out at 60.90 ± 1.2 °C. In addition, the “Molar enthalpy of transition or fusion” value in series [2] was determined as 4.3 ± 0.105 kcal/mol.

As to `c1ccc(-c2nc(-c3ccccc3)c(-c3ccccc3)[nH]2)cc1` [2,4,5-triphenyl-1H-imidazole], in series [1], the Normal melting temperature amounted to 274.60 ± 2.1 °C. The “Molar enthalpy of transition or fusion” value in series [2] turned out to be 8.92 ± 0.194 kcal/mol.

For `c1ccc(-c2ncc[nH]2)cc1` [2-phenyl-1H-imidazole], in series [1], the Normal melting temperature was found to be 146.80 ± 2.1 °C. The “Molar enthalpy of transition or fusion” value in series [2] came out at 4.26 ± 0.108 kcal/mol.

On to `c1ccc(-c2nc[nH]c2-c2ccccc2)cc1` [4,5-diphenylimidazole], for which the Normal melting temperature in series [1] was found to be 231.80 ± 2.1 °C. Besides, the “Molar enthalpy of transition or fusion” value in series [2] stood at 7.73 ± 0.17 kcal/mol.

The values above are taken from the NIST ThermoML archive (doi:10.1016/j.tca.2007.02.005).
